Results reported in patent publication US20260124213A1, “STAPHYLOCOCCUS AUREUS PBP4 INHIBITORS AND METHOD OF USE” (UNIVERSITY OF ROCHESTER, priority 2022, published 2026).
Converted amounts (≈) assume the structure as drawn. “And” between values parts separate entries of the source, which are not always exact repeats. Equal values may be shown once. Read-outs that look alike come from different tables or passages of the source.

Legend:
[1] = system: MRSA strain AH-1263; assay: Broth microdilution antibiotic potentiation; format: cell-based, Staphylococcus aureus; settings: AH-1263; for MIC: Staphylococcus aureus, MRSA
Method: (§1) Broth Microdilution Method for Antibiotic Potentiation with MRSA Strains. Bacteria were cultured for 6 hours in CAMHB and sub-cultured to 5×10^5 CFU/mL in CAMHB. Subcultures were aliquoted (4 mL) into culture tubes and then inoculated with compound from 10 mM or 100 mM stock in DMSO to the desired concentration. […]. Bacteria treated with antibiotic alone served as the control. Samples from the secondary culture tubes were then aliquoted (200 μL) into the first row of wells of a 96-well microtiter plate. Rows 2-11 were filled (100 μL) with the remaining 4 mL of bacterial subculture containing the adjuvant. Row 12 was filled (100 μL) with uninoculated media. From row 1, 100 μL was transferred to row two and mixed 5-8 times before being transferred to row 3. This procedure was used to serial dilute the rest of the rows through 10. The microtiter plate was then covered in Press 'n Seal and incubated at 37° C.

[2] = system: MRSA strain AH-2204; assay: Broth microdilution antibiotic potentiation; format: cell-based, Staphylococcus aureus; settings: Staphylococcus aureus, MRSA, AH-2204
Method: as §1

[3] = system: MRSA strain ATCC BAA-1556; assay: Broth microdilution antibiotic potentiation; format: cell-based, Staphylococcus aureus; settings: ATCC BAA-1556; for MIC: Staphylococcus aureus
Method: as §1

[4] = system: CRBΔpbp4; assay: MIC testing of antibiotics; format: cell-based; settings: Staphylococcus aureus, read-out: Minimum inhibitory concentration
Method: (§2) Bacterial Strains and Chemicals. The bacterial strains used in these studies include: USA300, USA300Δpbp4, USA300Δpbp4 pPBP4, COL, COLn, COLnex, CRB, and CRBΔpbp4. S. aureus strain USA300 is a predominant cause of U.S. community-associated MRSA infections, whereas strain COL is a commonly studied hospital-associated MRSA strain. The S. aureus USA300 pbp4-null strain (USA300Δpbp4) and PBP4 complementation strain (USA300Δpbp4 pPBP4) have been previously described. […] All strains were grown in Mueller Hinton (MH) broth at 37° C., as indicated.
(§3) Prioritized compounds were tested for their ability to reverse PBP4 mediated antibiotic resistance in another S. aureus background using three isogenic strains that became available during the study (generous gift from Dr. S. Chatterjee; University of Maryland). These strains included: 1) COLnex, which is a methicillin susceptible strain, 2) CRB, a methicillin/ceftobiprole resistant strain of COLnex that overproduces PBP4, and 3) CRBΔpbp4, a methicillin susceptible strain of CRB lacking the pbp4 gene.

[5] = system: COLnex; assay: MIC testing of antibiotics; format: cell-based; settings: Staphylococcus aureus, read-out: Minimum inhibitory concentration
Method: as §2, §3

[6] = system: S. aureus strain CRB; assay: microbe, parasite or virus in culture; format: cell-based, Staphylococcus aureus; settings: Staphylococcus aureus, read-out: BPR (ceftobiprole) MIC, Alone
Method: Fractional Inhibitory Concentration Index (FICI). Fractional inhibitory testing was performed in checkerboard format to determine whether putative PBP4 inhibitors potentiated the antimicrobial effects of β-lactams toward S. aureus strains USA300 and CRB, as previously described (Chojacnki, et al. Journal of Antimicrobial Chemotherapy, 2003, 52, 1). To do so, in triplicate 10^5 CFU of each strain (10 μL) was added to individual wells of a microtiter plate containing 90 μL MH media. […] Plates were incubated at 37° C. for 16-20 hour and the lowest concentration of each test agent that inhibited bacterial growth alone or in combination was determined by the naked eye. The fractional inhibitory concentration (FIC) index was calculated using the formula: FIC of A (MIC of drug A in combination/MIC of drug A alone)+FIC B ([…]/MIC of drug B alone). A synergistic interaction was defined as a FICI value of less than 0.5, an additive interaction was defined as a FICI value between 0.5 and 1.0, an indifferent interaction was defined as a FICI value between 1.0 and 4.0, and an antagonistic interaction was defined as a FICI value of more than 4.0.

[7] = system: USA300Δpbp4; assay: MIC testing of antibiotics; format: cell-based, Staphylococcus aureus; settings: for MIC: Staphylococcus aureus, read-out: Minimum inhibitory concentration
Method: as §2
(§4) Prior to identifying new PBP4 inhibitors, a screening paradigm to identify existing molecules that reverse the antibiotic resistance profile of wild type cells to that of a pbp4 mutant was developed. To define screening conditions three strains were employed: 1) a wild type USA300 MRSA strain, 2) an isogenic pbp4 deletion strain, and 3) a complemented strain harboring a plasmid wildtype pbp4 copy. The antibiotic susceptibility profile of each strain was measured to determine the magnitude with which PBP4 affects resistance to various antibiotics (Table 1).

[8] = system: S. aureus strain USA300; assay: microbe, parasite or virus in culture; format: cell-based, Staphylococcus aureus
Method: as §2, §4

[9] = system: CRB; assay: MIC testing of antibiotics; format: cell-based, Staphylococcus aureus; settings: for MIC: Staphylococcus aureus, read-out: Minimum inhibitory concentration, CRB
Method: as §2, §3

[10] = system: strain CRBΔpbp4; assay: microbe, parasite or virus in culture; format: cell-based, Staphylococcus aureus; settings: Staphylococcus aureus, read-out: BPR (ceftobiprole) MIC, Alone
[11] = system: USA300Δpbp4 pPBP4; assay: microbe, parasite or virus in culture; format: cell-based; settings: Staphylococcus aureus, read-out: Minimum inhibitory concentration
[12] = read-out: Amoxicillin MIC, no compound (—)
[13] = Staphylococcus aureus, USA300, read-out: Minimum inhibitory concentration
[14] = read-out: Cefotaxime MIC, no compound (—)
[15] = read-out: Cephalothin MIC, no compound (—)
[16] = read-out: Imipenem MIC, no compound (—)
[17] = read-out: Piperacillin MIC, no compound (—)

Row | Compound | MIC [4] | MIC [5] | MIC [7] | MIC [8, 13] | MIC [9] | MIC [11] | further results
1 | CC1(C)S[C@@H]2[C@H](NC(=O)[C@H](N)c3ccc(O)cc3)C(=O)N2[C@H]1C(=O)O [Amoxicillin, amoxicillin] | – | – | – | – | – | – | Amoxicillin MIC, no compound (—) [1]: 8 µg/mL; MIC [1, 12]: 4 µg/mL; MIC [2, 12]: 2 µg/mL; MIC [3, 12]: 8 µg/mL
2 | Nc1nc(/C(=N/O)C(=O)N[C@@H]2C(=O)N3C(C(=O)O)=C(/C=C4\CCN([C@@H]5CCNC5)C4=O)CS[C@H]23)ns1 [BPR, ceftobiprole] | 0.25 µg/mL (≈ 0.468 µM) | 0.25 µg/mL (≈ 0.468 µM) | 0.25 µg/mL (≈ 0.468 µM) | 0.5 µg/mL (≈ 0.935 µM) | 128 µg/mL (≈ 239 µM) | 0.5 µg/mL (≈ 0.935 µM) | MIC [6]: 128 µg/mL; Minimum inhibitory concentration ([9]; CRB): >128 µg/mL; MIC [10]: 0.25 µg/mL (≈ 0.468 µM)
3 | O=C(O)c1cn(C2CC2)c2cc(N3CCNCC3)c(F)cc2c1=O [CIP, ciprofloxacin] | 0.25 µg/mL (≈ 0.754 µM) | 0.25 µg/mL (≈ 0.754 µM) | 1 µg/mL (≈ 3.02 µM) | – | 0.5 µg/mL (≈ 1.51 µM) | – | Minimum inhibitory concentration ([7]; USA300Δpbp4): 1 µg/mL (≈ 3.02 µM); MIC ([8]; Staphylococcus aureus, USA300; read-out: Minimum inhibitory concentration): 4 µg/mL (≈ 12.1 µM); Minimum inhibitory concentration ([8]; USA300): 4 µg/mL (≈ 12.1 µM)
4 | CO/N=C(\C(=O)N[C@@H]1C(=O)N2C(C(=O)O)=C(COC(C)=O)CS[C@H]12)c1csc(N)n1 [Cefotaxime, cefotaxime] | – | – | – | – | – | – | Cefotaxime MIC, no compound (—) [1]: 32 µg/mL; MIC [1, 14]: 16 µg/mL; Cefotaxime MIC, no compound (—) [3]: 32 µg/mL; MIC [3, 14]: 16 µg/mL
5 | CC(=O)OCC1=C(C(=O)O)N2C(=O)[C@@H](NC(=O)Cc3cccs3)[C@H]2SC1 [Cephalothin, cephalothin] | – | – | – | – | – | – | Cephalothin MIC, no compound (—) [1]: 32 µg/mL; MIC [1, 15]: 16 µg/mL; Cephalothin MIC, no compound (—) [3]: 16 µg/mL; MIC [3, 15]: 32 µg/mL
6 | C[C@@H](O)[C@H]1C(=O)N2C(C(=O)O)=C(SCCN=CN)C[C@H]12 [Imipenem, imipenem] | – | – | – | – | – | – | MIC [1, 16]: 16 µg/mL; MIC [2, 16]: 32 µg/mL; MIC [3, 16]: 32 µg/mL
7 | C[C@H]1COc2c(N3CCN(C)CC3)c(F)cc3c(=O)c(C(=O)O)cn1c23 [LEV, levofloxacin] | 0.25 µg/mL (≈ 0.692 µM) | 0.25 µg/mL (≈ 0.692 µM) | 0.5 µg/mL (≈ 1.38 µM) | 1 µg/mL (≈ 2.77 µM) | 0.5 µg/mL (≈ 1.38 µM) | 1 µg/mL (≈ 2.77 µM) | –
8 | C[C@@H](O)[C@H]1C(=O)N2C(C(=O)O)=C(S[C@@H]3CN[C@H](C(=O)N(C)C)C3)[C@H](C)[C@H]12 [MER, meropenem] | 1 µg/mL (≈ 2.61 µM) | 1 µg/mL (≈ 2.61 µM) | 2 µg/mL (≈ 5.22 µM) | 4 µg/mL (≈ 10.4 µM) | 64 µg/mL (≈ 167 µM) | 4 µg/mL (≈ 10.4 µM) | Minimum inhibitory concentration ([8]; USA300): 4 µg/mL (≈ 10.4 µM)
9 | CN(C)c1ccc(O)c2c1C[C@H]1C[C@H]3[C@H](N(C)C)C(O)=C(C(N)=O)C(=O)[C@@]3(O)C(O)=C1C2=O [MIN, minocycline] | 0.5 µg/mL (≈ 1.09 µM) | 0.5 µg/mL (≈ 1.09 µM) | 0.5 µg/mL (≈ 1.09 µM) | 0.5 µg/mL (≈ 1.09 µM) | 0.5 µg/mL (≈ 1.09 µM) | 0.5 µg/mL (≈ 1.09 µM) | –
10 | C/C(=C\C(=O)OCCCCCCCCC(=O)O)C[C@@H]1OC[C@H](C[C@@H]2O[C@H]2[C@@H](C)[C@H](C)O)[C@@H](O)[C@H]1O [MUP, mupirocin] | 0.03 µg/mL (≈ 0.0599 µM) | 0.03 µg/mL (≈ 0.0599 µM) | 0.125 µg/mL (≈ 0.25 µM) | 0.125 µg/mL (≈ 0.25 µM) | 0.03 µg/mL (≈ 0.0599 µM) | 0.125 µg/mL (≈ 0.25 µM) | –
11 | CCOc1ccc2ccccc2c1C(=O)N[C@@H]1C(=O)N2[C@@H]1SC(C)(C)[C@@H]2C(=O)O [NAF, nafcillin] | 0.25 µg/mL (≈ 0.603 µM) | 0.25 µg/mL (≈ 0.603 µM) | 4 µg/mL (≈ 9.65 µM) | 8 µg/mL (≈ 19.3 µM) | > 128 µg/mL | 8 µg/mL (≈ 19.3 µM) | Minimum inhibitory concentration ([8]; USA300): 8 µg/mL (≈ 19.3 µM)
12 | CC1(C)S[C@@H]2[C@H](NC(=O)Cc3ccccc3)C(=O)N2[C@H]1C(=O)O [Penicillin G, penicillin G] | – | – | – | – | – | – | Penicillin G MIC, no compound (—) [1]: 16 µg/mL and 8 µg/mL
13 | CCN1CCN(C(=O)N[C@@H](C(=O)N[C@@H]2C(=O)N3[C@@H]2SC(C)(C)[C@@H]3C(=O)O)c2ccccc2)C(=O)C1=O [Piperacillin, piperacillin] | – | – | – | – | – | – | MIC [1, 17]: 16 µg/mL; MIC [2, 17]: 4 µg/mL; MIC [3, 17]: 16 µg/mL
14 | NC[C@H]1O[C@H](O[C@H]2[C@H](O)[C@@H](O[C@H]3O[C@H](CO)[C@@H](O)[C@H](N)[C@H]3O)[C@H](N)C[C@@H]2N)[C@H](N)C[C@@H]1O [TOB, tobramycin] | 0.06 µg/mL (≈ 0.128 µM) | 0.06 µg/mL (≈ 0.128 µM) | 1 µg/mL (≈ 2.14 µM) | 1 µg/mL (≈ 2.14 µM) | 0.06 µg/mL (≈ 0.128 µM) | 1 µg/mL (≈ 2.14 µM) | –
15 | colistin | – | – | – | – | – | – | Minimum inhibitory concentration ([8]; USA300): 128 µg/mL
